Paper PMC6155437 (Molecules : A Journal of Synthetic Chemistry and Natural …, 2017)

Tests used:
Assay type in all cases: in vitro ADME
UGT1A3 = target: T1, UGT1A3 (Homo sapiens, UniProt P35503); assay: UGT1A3 chenodeoxycholic acid 24-acyl-glucuronidation inhibition in human liver microsomes
T1 construct: tissue Corning Life Sciences; host or cells: pooled human liver microsomes (150 donors)
T1 sequence (P35503 29-534): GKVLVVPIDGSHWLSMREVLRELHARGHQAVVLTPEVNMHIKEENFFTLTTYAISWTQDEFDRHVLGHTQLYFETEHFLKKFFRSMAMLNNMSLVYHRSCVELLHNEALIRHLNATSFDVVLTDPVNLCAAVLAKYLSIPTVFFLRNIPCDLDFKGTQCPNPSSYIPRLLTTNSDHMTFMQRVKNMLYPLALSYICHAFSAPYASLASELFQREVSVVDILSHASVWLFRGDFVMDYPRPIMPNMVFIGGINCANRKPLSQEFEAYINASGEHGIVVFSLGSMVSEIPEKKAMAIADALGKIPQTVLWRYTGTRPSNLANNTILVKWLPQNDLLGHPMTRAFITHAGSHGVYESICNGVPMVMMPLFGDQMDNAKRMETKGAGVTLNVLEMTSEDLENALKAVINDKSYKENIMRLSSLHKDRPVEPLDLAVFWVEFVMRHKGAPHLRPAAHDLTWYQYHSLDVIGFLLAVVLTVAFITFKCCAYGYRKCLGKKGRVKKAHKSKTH
Method: (§1) After 3 min of pre-incubation at 37 °C, the reactions were initiated by addition of UDPGA; incubation continued for 60 min at 37 °C in a shaking water bath. The reaction was stopped by placing the tubes on ice and adding 50 µL ice-cold acetonitrile containing internal standards (propofol glucuronide for chenodeoxycholic acid 24-acyl-β-glucuronide and mycophenolic acid glucuronide, and meloxicam for SN-38 glucuronide, trifluoperazine glucuronide, N-acetylserotonin β-D-glucuronide, and naloxone 3-β-D-glucuronide). The incubation mixtures were centrifuged (13,000× g, 4 min, 4 °C). All assays were performed in triplicate and average values were used in calculations.
(§2) The reactions were initiated by addition of UDPGA at 37 °C and stopped after 60 min by placing the incubation tubes on ice and adding 100 μL of ice-cold methanol containing propofol glucuronide (internal standard for UGT1A3) or meloxicam (internal standard for UGT2B7). The incubation mixtures were centrifuged (13,000× g, 4 min, 4 °C), and then, 50 μL of the supernatant was diluted with 50 μL of water. Aliquots (5 μL) of the diluted supernatants were analyzed by LC-MS/MS.
(§3) The metabolites formed from the six UGT cocktail substrates were measured simultaneously using the LC-MS/MS method. The ESI source settings in both positive- and negative-ion modes for metabolite ionization were: capillary voltage, 4200 V; vaporizer temperature, 350 °C; capillary temperature, 330 °C; sheath gas pressure, 35 psi; and auxiliary gas pressure, 15 psi. […] Data were processed using Xcalibur software.
(§4) The apparent kinetic parameters for inhibitory potential (Ki and kinact values) and inhibition mode were estimated from the fitted curves using the Enzyme Kinetics program (ver. 1.1; Systat Software Inc., San Jose, CA, USA).

UGT2B7 = target: T2, UGT2B7 (Homo sapiens, UniProt P16662); assay: UGT2B7 naloxone 3-β-D-glucuronidation inhibition in human liver microsomes
T2 construct: tissue Corning Life Sciences; host or cells: pooled human liver microsomes (150 donors)
T2 sequence (P16662 24-529): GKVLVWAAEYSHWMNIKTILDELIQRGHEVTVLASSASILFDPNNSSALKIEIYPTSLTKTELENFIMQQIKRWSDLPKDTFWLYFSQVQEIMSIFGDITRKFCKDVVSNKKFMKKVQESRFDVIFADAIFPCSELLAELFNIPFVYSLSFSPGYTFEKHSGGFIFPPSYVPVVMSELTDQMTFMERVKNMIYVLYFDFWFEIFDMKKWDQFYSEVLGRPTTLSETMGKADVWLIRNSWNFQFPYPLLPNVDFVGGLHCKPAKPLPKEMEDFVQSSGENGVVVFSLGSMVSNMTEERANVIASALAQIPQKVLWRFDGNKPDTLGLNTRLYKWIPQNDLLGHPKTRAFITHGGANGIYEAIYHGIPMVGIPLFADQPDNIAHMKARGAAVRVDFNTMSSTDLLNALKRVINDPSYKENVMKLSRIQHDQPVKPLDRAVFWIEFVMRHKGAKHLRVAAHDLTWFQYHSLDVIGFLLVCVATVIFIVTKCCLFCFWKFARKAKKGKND
Method: as §1, §2, §3, §4

CYP2C19 = target: T3, CYP2C19 (Homo sapiens, UniProt P33261); assay: CYP2C19 [S]-mephenytoin 4′-hydroxylase inhibition in human liver microsomes; details: at 50 µM
T3 construct: pooled human liver microsomes (0.2 mg/mL); tissue Corning Life Sciences; host or cells: pooled human liver microsomes (150 donors)
T3 sequence (P33261 whole entry): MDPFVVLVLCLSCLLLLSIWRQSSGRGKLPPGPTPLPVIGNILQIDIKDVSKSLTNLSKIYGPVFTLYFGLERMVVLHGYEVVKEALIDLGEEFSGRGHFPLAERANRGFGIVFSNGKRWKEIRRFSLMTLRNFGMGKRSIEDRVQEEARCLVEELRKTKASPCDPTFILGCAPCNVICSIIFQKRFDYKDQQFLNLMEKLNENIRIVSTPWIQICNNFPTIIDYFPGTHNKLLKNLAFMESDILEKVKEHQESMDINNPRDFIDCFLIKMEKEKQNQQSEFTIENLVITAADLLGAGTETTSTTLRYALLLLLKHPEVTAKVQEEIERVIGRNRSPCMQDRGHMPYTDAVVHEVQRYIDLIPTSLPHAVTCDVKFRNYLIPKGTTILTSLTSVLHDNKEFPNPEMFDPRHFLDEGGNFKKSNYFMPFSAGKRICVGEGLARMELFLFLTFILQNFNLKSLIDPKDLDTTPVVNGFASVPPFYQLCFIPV
Method: After a 3-min pre-incubation at 37 °C, the reactions were initiated by addition of NADPH and incubation proceeded for 15 min at 37 °C in a shaking water bath. […] The incubation mixtures were centrifuged (13,000× g, 4 min, 4 °C). All assays were performed in triplicate and mean values were used in calculations.
Each reaction was initiated by adding the seven-CYP probe substrate cocktail.
The metabolites formed from CYP substrates were quantified simultaneously by a LC-MS/MS method described previously. The ESI source settings in positive-ion mode for metabolite ionization were: capillary voltage, 4200 V; vaporizer temperature, 350 °C; capillary temperature, 330 °C; sheath gas pressure, 35 psi; and auxiliary gas pressure, 15 psi. […] Analytical data were processed using Xcalibur software (version 2.1, Thermo Scientific).
as §4

UGT1A1 = target: T4, UGT1A1 (Homo sapiens, UniProt P22309); assay: UGT1A1 SN-38 glucuronidation inhibition in ultrapool human liver microsomes; details: at 50 µM
T4 construct: pooled human liver microsomes (0.2 mg/mL), 5 mM UDPGA; tissue Corning Life Sciences; host or cells: pooled human liver microsomes (150 donors)
T4 sequence (P22309 26-533): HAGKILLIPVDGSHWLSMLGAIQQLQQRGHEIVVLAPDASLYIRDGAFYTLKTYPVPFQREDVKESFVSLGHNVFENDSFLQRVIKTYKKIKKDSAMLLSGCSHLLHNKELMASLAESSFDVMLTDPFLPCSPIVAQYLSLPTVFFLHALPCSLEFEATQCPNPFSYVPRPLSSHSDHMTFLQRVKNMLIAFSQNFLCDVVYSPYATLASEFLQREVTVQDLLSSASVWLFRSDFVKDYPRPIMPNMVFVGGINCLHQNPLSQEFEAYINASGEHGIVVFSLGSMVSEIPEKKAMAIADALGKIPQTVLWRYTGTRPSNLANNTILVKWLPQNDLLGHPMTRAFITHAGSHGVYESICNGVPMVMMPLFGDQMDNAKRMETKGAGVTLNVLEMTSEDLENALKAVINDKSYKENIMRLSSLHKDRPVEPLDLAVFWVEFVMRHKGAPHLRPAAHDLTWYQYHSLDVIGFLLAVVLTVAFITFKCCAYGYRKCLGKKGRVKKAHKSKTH
Method: as §1, §3, §4

Q: For `O=C(c1cccc2ccccc12)c1cn(CCCCCF)c2ccccc12` [AM-2201, 1-(5-fluoropentyl-1H-indol-3-yl)-(naphthalene-1-yl)methanone], which Ki (UGT1A3) is on record?
A: The Ki was 4.3 µM.

Q: And the IC50 (UGT1A3; IC50, UGT1A3-catalyzed chenodeoxycholic acid 24-acyl-glucuronidation, abstract)?
A: Its IC50 is 4.3 µM.

Q: And the IC50 (UGT1A3; IC50, UGT1A3 chenodeoxycholic acid 24-acyl-glucuronidation, 2 μM chenodeoxycholic acid, human liver microsomes)?
A: The IC50 was 6.4 µM.

Q: What about the Inhibition Mode (UGT1A3; UGT1A3 chenodeoxycholic acid 24-acyl-glucuronidation) of the same compound?
A: The Inhibition Mode was “competitively inhibited”.

Q: What about the Ki (UGT2B7) of the same compound?
A: The Ki was 10 µM.

Q: What about the IC50 (UGT2B7; IC50, UGT2B7-catalyzed naloxone 3-glucuronidation, abstract) of the same compound?
A: Its IC50 is 10 µM.

Q: And the IC50 (UGT2B7; IC50, UGT2B7 naloxone 3-β-D-glucuronidation, 1 μM naloxone, human liver microsomes)?
A: Its IC50 is 14.5 µM.

Q: And the Inhibition Mode (UGT2B7; UGT2B7 naloxone 3-β-D-glucuronidation)?
A: Its Inhibition Mode is “mixed inhibition”.

Q: What about the “inhibition of CYP2C19-mediated [S]-mephenytoin 4′-hydroxylation” value (CYP2C19) of the same compound?
A: The value was “negligibly inhibited”.

Q: What about the “inhibition of UGT1A1-catalyzed SN-38 glucuronidation” value (UGT1A1) of the same compound?
A: The value was “negligibly inhibited”.
